Columns and labels:
Assay type in all cases: binding, human
[1] = system: TX1BP3_PDZ; assay: nHU-MS, TX1BP3_PDZ (TAX1BP3) bait, total Jurkat extracts (Exploris MS); settings: for BI / Difference log2 / Ratio TX1BP3/MBP: nHU-MS, total Jurkat extract; for BI: TX1BP3_PDZ bait vs MBP; for Difference log2: TX1BP3_PDZ vs MBP; for Ratio TX1BP3/MBP: TX1BP3_PDZ
Source text: (§1) To further establish the repeatability and robustness of the nHU-MS assay, we repeated the experiments using a different mass spectrometer and six different PDZ domain baits taken from SCRIB (PDZ_1 and PDZ_2), discs large MAGUK scaffold protein 1 (DLG1, PDZ_1, and PDZ_2), Tax1 binding protein 3 (TAX1BP3), and SNX27 (fig. S3B and table S1). […] Of the studied baits, the PDZ domain of SNX27 turned out to be the most promiscuous with 103 statistically significant interaction partners (while 180 SNX27 binding partners were identified in total on the basis of the three independent nHU-MS experiments).
(§2) For saturating streptavidin resin with biotinylated peptides or biotin, 50 μl of streptavidin resin was mixed with biotin or peptide at 40 to 60 μM concentration in 6 to 6.5 resin volume for 60 min. To saturate streptavidin resin with biotinylated proteins, 50 μl of streptavidin resin (Streptavidin Sepharose High Performance, Cytiva) was mixed with biotinylated MBP or MBP-PDZ at 40 to 50 μM concentration in 20× resin volume for 60 min. After saturation, resins were washed a single time [10 resin volume, holdup buffer: 50 mM tris (pH 7.5), 300 mM NaCl, and 1 mM TCEP, 0.22-μm filtered] and were depleted with biotin (10 resin volume, 10 min, holdup buffer supplemented with 100 μM biotin). Last, resins were washed two times (10 resin volume, holdup buffer).
(§3) For single-point nHU experiments carried out at ~10 μM bait concentration, 50 μl of saturated streptavidin resin was mixed with 200 μl of cell lysate (2 mg/ml). Titration experiments were carried out by mixing control and bait-saturated resin and keeping the total resin volume constant; e.g., ~5 μM bait concentration can be achieved by mixing 25 μl of bait-saturated streptavidin resin with 25 μl of control resin and 200 μl of cell lysate (2 mg/ml). Control and bait-saturated resins were prepared in larger amounts, and a serial dilution was prepared with these presaturated resins to achieve different resin ratios.
(§4) Unless specified elswhere, the nHU mixture was incubated at 4°C for 2 hours. After the incubation ended, the resin was separated from the supernatant by a brief centrifugation (15 s, 2000 g). Then, half of the supernatant was removed by pipetting without any delay to avoid any resin contamination; e.g., 100 μl of supernatant is collected if 200 μl of cell lysate was used as analyte. Alternatively, the supernatant can be centrifuged an additional time to clarify it further, removing any possible resin contamination. In principle, the separation of the supernatant should be as fast as possible since any delay can perturb the equilibrium. […] Alternatively, the resin can be separated from the supernatant using filter plates (e.g., various products of Millipore, Burlington, MA) or spin columns (e.g., Pierce spin cups—cellulose acetate filter from Thermo Fisher Scientific, Waltham, MA) to achieve faster separation.
(§5) The nHU samples were precipitated with trichloroacetic acid (TCA) 20% overnight at 4°C and centrifuged at 14,000 rpm for 10 min at 4°C. The protein pellets were washed twice with 1 ml of cold acetone and air-dried. The protein extracts were solubilized in 8 M urea, reduced with 5 mM TCEP for 30 min, and alkylated with 10 mM iodoacetamide for 30 min in the dark. Double digestion was performed at 37°C with 500 ng of endoproteinase Lys-C (Wako, Richmond, USA) for 4 hours, followed by fourfold dilution and an overnight digestion with 500 ng of trypsin (Promega, Charbonnieres les Bains, France). Peptide mixtures were then desalted on a C18 spin-column and dried on a speed vacuum.
(§6) Samples were analyzed using an Ultimate 3000 nano-RSLC coupled in line via a nano-electrospray ionization source, with an LTQ-Orbitrap ELITE mass spectrometer (Thermo Fisher Scientific, San Jose, CA) or with the Orbitrap Exploris 480 mass spectrometer (Thermo Fisher Scientific, Bremen, Germany) equipped with a high field asymmetric ion mobility spectrometry (FAIMS) module. […]

[2] = system: SCRIB_PDZ_2; assay: nHU-MS, SCRIB_PDZ_2 bait, total Jurkat extracts (Exploris MS); settings: nHU-MS; for Ratio SCRIB_2/MBP: SCRIB_PDZ_2, total Jurkat extract; for BI: SCRIB_PDZ_2 bait vs MBP; for BI / Difference log2: total Jurkat extract; for Difference log2: SCRIB_PDZ_2 vs MBP
Source text: as §1, §2, §3, §4, §5, §6

[3] = system: DLG1_PDZ_2; assay: nHU-MS, DLG1_PDZ_2 bait, total Jurkat extracts (Exploris MS); settings: Jurkat extract; for Difference log2 / Ratio DLG1_2/MBP: DLG1_PDZ_2 bait vs MBP; for BI: DLG1_PDZ_2 bait
Source text: as §1, §2, §3, §4, §5, §6

[4] = system: SNX27_PDZ; assay: nHU-MS, SNX27_PDZ bait, total Jurkat extracts, series 2 (Exploris MS)
Source text: as §1, §2, §3, §4, §5, §6

[5] = system: DLG1_PDZ_1; assay: nHU-MS, DLG1_PDZ_1 bait, total Jurkat extracts (Exploris MS); settings: for Ratio DLG1_1/MBP: DLG1_PDZ_1, total Jurkat extract; for BI: DLG1_PDZ_1 bait vs MBP; for BI / pKd / Difference log2: total Jurkat extract; for pKd: DLG1_PDZ_1 bait, not filtered for significance (pKdsign N/D); for Difference log2: DLG1_PDZ_1 vs MBP
Source text: as §1, §2, §3, §4, §5, §6

[6] = system: SCRIB_PDZ_1; assay: nHU-MS, SCRIB_PDZ_1 bait, total Jurkat extracts (Exploris MS); settings: for Ratio SCRIB_1/MBP: SCRIB_PDZ_1, total Jurkat extract; for BI: SCRIB_PDZ_1 bait vs MBP; for Difference log2: SCRIB_PDZ_1 vs MBP
Source text: as §1, §2, §3, §4, §5, §6

Row | Substance | BI [1] | Difference log2 [1] | Ratio TX1BP3/MBP [1] | Ratio SCRIB_2/MBP [2] | BI [2] | Difference log2 [2] | Difference log2 [3] | Ratio DLG1_2/MBP [3] | BI [3] | BI ([4]; Jurkat, series 2, n = 3) | Difference log2 ([4]; Jurkat, series 2, n = 3) | Ratio SNX27/MBP ([4]; Jurkat, series 2, n = 3) | Ratio DLG1_1/MBP [5] | BI [5] | pKd [5] | Difference log2 [5] | Ratio SCRIB_1/MBP ([6]; nHU-MS) | BI ([6]; nHU-MS, total Jurkat extract) | Difference log2 ([6]; nHU-MS, total Jurkat extract) | other results
1 | PPIAL4C: Peptidyl-prolyl cis-trans isomerase A-like 4C | -0.05401 | 0.07589 | 1.054 | 1.136 | -0.1361 | 0.1841 | 0.05781 | 1.041 | -0.04089 | -0.1115 | 0.1526 | 1.112 | 0.9698 | 0.03017 | 3.493 | -0.0442 | 0.9925 | 0.007486 | -0.01084 | pKd ([6]; nHU-MS, SCRIB_PDZ_1 bait, total Jurkat extract, not filtered for significance (pKdsign N/D)): 2.878
2 | PPIAL4H: Peptidyl-prolyl cis-trans isomerase A-like 4H | -0.05277 | 0.07419 | 1.053 | 1.14 | -0.1396 | 0.1885 | 0.01399 | 1.01 | -0.009745 | 0.2686 | -0.4513 | 0.7314 | 0.8033 | 0.1967 | 4.3897 | -0.3159 | 1.007 | -0.006606 | 0.009499 | pKd ([4]; apparent, Jurkat, series 2, not filtered for significance, n = 3): 4.566
3 | WDR48 |  |  |  |  |  |  |  |  |  |  |  |  |  |  |  |  |  |  |  | pKapp (nHU-MS) ([1]; TX1BP3_PDZ&Jurkat (Exploris)): 4.78; pKapp (nHU-MS) ([4]; SNX27_PDZ&Jurkat (Exploris)): 4.78; pKapp (nHU-MS) ([6]; SCRIB_PDZ_1&Jurkat (Exploris)): 4.749
